Drawing on patent publication EP0233461B2, “4,5,6-Substituted-2-pyrimidinamines” (AMERICAN CYANAMID COMPANY, priority 1986, dated 1987), this text covers IC50 for 43 compounds.

Counter-ions that a name gives are not always drawn. A value given as a limit tells only on which side of the number the result lay.

The first assay concerns human basophils. Kind of assay: Inhibition of histamine release from immunologically stimulated human basophils. In kind it is cell-based. As to conditions: Homo sapiens, concentration causing 50% inhibition of histamine release, by linear regression; active if IC50 ≦ 48 µM. How it is done:
The blood is allowed to sediment at room temperature in two 50 ml polycarbonate centrifuge tubes until a sharp interface develops between the red cells and plasma (60-90 minutes). The plasma (top) layer from each tube is withdrawn by pipet and transferred to respective 50 ml polycarbonate tubes. The plasma is centrifuged for 8 minutes at 110X G at 4°C. The supernatant is carefully poured off as completely as possible and the cell button is resuspended in 2-3 ml of Tris-A buffer using a siliconized Pasteur pipet. The resuspension is accomplished by drawing the liquid gently in an out of the pipet, with the tip below the liquid until an even suspension of cells is obtained. Sufficient Tris-A buffer is then added to bring the volume in the tube to about 45 ml and the tube is centrifuged at 110X G for 8 minutes at 4°C. The supernatant is poured off and the cell button is resuspended and centrifuged as described above. The supernatant is poured off and the cell button is suspended in 2-3 ml of Tris-ACM buffer to make the final volume sufficient to allow addition to the reaction tubes. Reaction tubes containing anti-IgE or antigens, either alone or with test compound in a total volume of 0.2 ml are prepared and placed in a 37°C bath. The cells are warmed to 37°C and frequently swirled to ensure an even suspension, while 1.0 ml aliquots are added to each reaction tube. The tubes are then incubated for 60 minutes at 37°C, vortexing the tubes gently every 15 minutes to keep the cells evenly suspended. When the reaction is complete, the tubes are centrifuged at 4°C for 10 minutes at 1500 rpm to sediment the cells. […] Blanks and totals are included in each test. The blanks have cells and all reagents except antigen or anti-IgE. The totals contain 0.24 ml of 8% perchloric acid, one ml of cells and 0.2 ml of buffer. All samples are then centrifuged to remove the precipitate protein. […] The automated system consists of the following Technicon Autoanalyzer II components Sampler IV, Dual-Speed Proportioning Pump III, Fluoronephelometer with a narrow pass primary filter 7-60 and a secondary filter 3-74, Recorder, and Digital Printer. The manifold used is the one described by Siraganian vide supra, with the following modifications: the dialyzer is omitted; all pumping tubes pass through a single proportioning pump with large capacity and twice the volume of sample is taken for anaylsis. The automated chemistry consists of the following steps: Extraction from alkaline saline into butanol, back extraction into dilute hydrochloric acid by addition of heptane, reaction of histamine with o-phthaldialdehyde (OPT) at high pH and conversion of the OPT adduct to a stable fluorophore with phosphoric acid. The reaction product is then passed through the fluorometer. The full scale response is adjusted to 50 ng histamine base with a threshold sensitivity of approximately 0.5 ng. The instrument blank (wash) is substracted from the ng histamine of each sample. Then the ng histamine of each sample is divided by the mean of the three totals (cells lysed with perchloric acid) to obtain percent release. Control samples contain antigen but no test compound. Blank (or spontaneous release) samples contain neither antigen nor test compound. The mean of the blanks (three replicates) is subtracted from the percent release for controls and test compounds.
Compound `COc1ccc(Nc2nccc(-c3cccnc3)n2)cc1` [N-(4-Methoxyphenyl)-4-(3-pyridinyl)-2-pyrimidinamine, sulfate] showed an IC50 of less than 48000 nM.

Staying with this assay, now noted: Homo sapiens, concentration causing 50% inhibition of histamine release, by linear regression; active if IC50 ≦ 48 µM; read-out: IC50.
With `CC(=O)Nc1ccc(Nc2nccc(-c3ccco3)n2)cc1` [N-[4-[[4-(2-Furanyl)-2-pyrimidin-yl]amino]phenyl]acetamide], the IC50 worked out at 700 nM. Same read-out and setting: the result for `COc1cccc(Nc2nccc(-c3ccccn3)n2)c1` [N-(3-Methoxyphenyl)-4-(2-pyridinyl)-2-pyrimidinamine] reads 200 nM. Consider `CC(=O)c1ccc(Nc2nccc(-c3cccnc3)n2)cc1` [N-(4-Acetylphenyl)-4-(3-pyridinyl)-2-pyrimidinamine], for which the IC50 was 800 nM. The same measure, in the same setting: the result for `Cc1cc(-c2ccncc2)nc(Nc2ccc(N(C)C)cc2)n1` [N,N-Dimethyl-N'-[4-methyl-6-(4-pyridinyl)-2-pyrimidinyl]-1,4-benzenediamine] reads 37700 nM; that for `COc1ccc(Nc2nccc(-c3ccco3)n2)cc1` [4-(2-Furanyl)-N-(4-methoxyphenyl)-2-pyrimidinamine], less than 48000 nM. As to `Cc1cc(-c2ccccn2)nc(Nc2ccccc2)n1` [4-Methyl-N-phenyl-6-(2-pyridinyl)-2-pyrimidinamine], the IC50 was determined as 26800 nM. Same read-out and setting: the result for `CC(NC=O)c1cccc(Nc2nccc(-c3cccnc3)n2)c1` (stereo not shown) [N-[1-[3-[[4-(3-Pyridinyl)-2-pyrimidinyl]amino]phenyl]ethyl]formamide] reads 4600 nM. As for `Cc1ccc(C)c(Nc2nccc(-c3ccncc3)n2)c1` [N-(2,5-Dimethylphenyl)-4-(4-pyridinyl)-2-pyrimidinamine], the IC50 was 47100 nM. Consider `Cc1cccc(Nc2nccc(-c3ccccn3)n2)c1` [N-(3-Methylphenyl)-4-(2-pyridinyl)-2-pyrimidinamine], for which the IC50 is 700 nM. `Clc1cccc(Nc2nccc(-c3cccnc3)n2)c1` [N-(3-Chlorophenyl)-4-(3-pyridinyl)-2-pyrimidinamine]: the IC50 came out at 1500 nM. Same read-out and setting: the same measure for `Clc1cccc(Nc2nccc(-c3ccncc3)n2)c1` [N-(3-Chlorophenyl)-4-(4-pyridinyl)-2-pyrimidinamine]: 3100 nM; for `Cc1cnc(Nc2cccc(N(C)C)c2)nc1-c1ccco1` [N,N-Dimethyl-N'-[4-(2-furanyl)-5-methyl-2-pyrimidinyl]-1,3-benzene-diamine]: 40000 nM. Regarding `CC(NC=O)c1ccc(Nc2nccc(-c3cccnc3)n2)cc1` (stereo not shown) [N-[1-[4-[[4-(3-Pyridinyl)-2-pyrimidinyl]amino]phenyl]ethyl]formamide], the IC50 turned out to be 400 nM.

`CCc1cccc(Nc2nccc(-c3ccsc3)n2)c1` [N-(3-Ethylphenyl)-4-(3-thienyl)-2-pyrimidinamine]: the half-maximal inhibitory concentration (IC50) worked out at 1100 nM.

`Cc1ccccc1Nc1nccc(-c2ccncc2)n1` [N-(2-Methylphenyl)-4-(4-pyridinyl)-2-pyrimidinamine]: the IC50 came to 3900 nM. In the case of `COc1cccc(Nc2nccc(-c3ccco3)n2)c1` [4-(2-Furanyl)-N-(3-methoxyphenyl)-2-pyrimidinamine], the IC50 is 300 nM. Still for that read-out and setting: the same measure for `Fc1ccc(Nc2nccc(-c3ccco3)n2)cc1` [N-(4-Fluorophenyl)-4-(2-furanyl)-2-pyrimidinamine]: 13300 nM; for `CN(C)CCCOc1ccc(Nc2nccc(-c3cccnc3)n2)cc1` [N-[4-[3-(Dimethylamino)propoxy]phenyl]-4-(3-pyridinyl)-2-pyrimidinamine]: 500 nM; for `Fc1ccc(Nc2nccc(-c3ccncc3)n2)cc1` [N-(4-Fluorophenyl)-4-(4-pyridinyl)-2-pyrimidinamine]: 1900 nM. For the compound `CCc1ccc(Nc2nc(C)cc(-c3ccc(C)nc3)n2)cc1` [N-(4-Ethylphenyl)-6-methyl-4-(6-methyl-3-pyridinyl)-2-pyrimidinamine], the IC50 turned out to be 19100 nM. Still for that read-out and setting: the same measure for `Cc1cccc(Nc2nccc(-c3ccsc3)n2)c1` [N-(3-Methylphenyl)-4-(3-thienyl)-2-pyrimidinamine]: 3800 nM; for `Cc1cc(C)cc(Nc2nccc(-c3ccco3)n2)c1` [N-(3,5-Dimethylphenyl)-4-(2-furanyl)-2-pyrimidinamine]: 700 nM. Regarding `CC(=O)Nc1cccc(Nc2nccc(-c3ccncc3)n2)c1` [N-[3-[[4-(4-Pyridinyl)-2-pyrimidinyl]amino]-phenyl]acetamide], the IC50 came to 2100 nM. On the same count and under the same terms, the result for `CCc1ccc(Nc2nccc(-c3cccn3C)n2)cc1` [N-(4-Ethylphenyl)-4-(1-methyl-1H-pyrrol-2-yl)-2-pyrimidinamine] reads less than 48000 nM; that for `c1cc(Nc2nccc(-c3ccncc3)n2)cc(-n2ccnc2)c1` [N-[3-(1H-Imidazol-1-yl)phenyl]-4-(4-pyridinyl)-2-pyrimidinamine], 400 nM. Same read-out and setting: the same measure for `COc1cccc(Nc2nccc(-c3ccsc3)n2)c1` [N-(3-Methoxyphenyl)-4-(3-thienyl)-2-pyrimidinamine]: 1700 nM.

For the compound `Fc1ccc(Nc2nccc(-c3cccnc3)n2)c(F)c1` [N-(2,4-Difluorophenyl)-4-(3-pyridinyl)-2-pyrimidinamine], the IC50 was less than 48000 nM. Still for that read-out and setting: the result for `Cc1cnc(Nc2ccccc2)nc1-c1ccco1` [4-(2-Furanyl)-5-methyl-N-phenyl-2-pyrimidinamine] reads 17700 nM; that for `CCN(CC)c1ccc(Nc2nccc(-c3ccccn3)n2)cc1` [N,N-Diethyl-N'-[4-(2-pyridinyl)-2-pyrimidinyl]-1,4-benzenediamine], 10100 nM; that for `O=C(O)c1ccc(Nc2nccc(-c3cccnc3)n2)cc1` [4-[[4-(3-Pyridinyl)-2-pyrimidinyl]amino]benzoic acid], 7600 nM. In the case of `FC(F)(F)c1cc(Nc2nccc(-c3ccccn3)n2)ccc1-n1ccnc1` [N-[4-(1H-Imidazol-1-yl)-3-(tri-fluoromethyl)phenyl]-4-(2-pyridin-yl)-2-pyrimidinamine], the IC50 was 1600 nM.

`COc1cccc(Nc2nccc(-c3cc4ccccc4o3)n2)c1` [4-(2-Benzofuranyl)-N-(3-methoxyphenyl)-2-pyrimidinamine]: the concentration for half-maximal inhibition (IC50) was found to be 1200 nM.

Consider `c1cncc(-c2ccnc(Nc3ccc(-n4ccnc4)cc3)n2)c1` [N-[4-(1H-Imidazol-1-yl)phenyl]-4-(3-pyridinyl)-2-pyrimidinamine], for which the IC50 is 1300 nM. On to `CN(C)c1cccc(Nc2nccc(-c3cccs3)n2)c1` [N,N-Dimethyl-N'-[4-(2-thienyl)-2-pyrimidinyl]-1,3-benzenediamine], for which the IC50 amounted to 2400 nM. Regarding `CC(C)(C)c1ccc(Nc2nccc(-c3cccs3)n2)cc1` [N-[4-(1,1-Dimethylethyl)phenyl]-4-(2-thienyl)-2-pyrimidinamine], the IC50 stood at 4600 nM. In the case of `COc1cccc(Nc2nccc(-c3cccs3)n2)c1` [N-(3-Methoxyphenyl)-4-(2-thienyl)-2-pyrimidinamine], the IC50 amounted to 900 nM. The same measure, in the same setting: the same measure for `Cc1ccc(C)c(Nc2nccc(-c3ccccn3)n2)c1` [N-(2,5-Dimethylphenyl)-4-(2-pyridinyl)-2-pyrimidinamine]: less than 48000 nM; for `c1cc(-c2ccnc(Nc3ccc(-n4ccnc4)cc3)n2)ccn1` [N-[4-(1H-Imidazol-1-yl)phenyl]-4-(4-pyridinyl)-2-pyrimidinamine]: 12300 nM; for `COc1cccc(Nc2nccc(-c3cccnc3)n2)c1` [N-(3-Methoxyphenyl)-4-(3-pyridinyl)-2-pyrimidinamine]: 300 nM.

Still in this assay, the particulars now being: concentration causing 50% inhibition of histamine release, by linear regression; active if IC50 ≦ 48 µM; dihydrochloride; read-out: IC50.
Turning to `CN(C)c1cccc(Nc2nccc(-c3ccccn3)n2)c1` [N,N-Dimethyl-N'-[4-(2-pyridinyl)-2-pyrimidinyl]-1,3-benzenediamine, dihydrochloride], the IC50 turned out to be 500 nM.

Regarding `c1ccc(Nc2nccc(-c3ccncc3)n2)cc1` [N-Phenyl-4-(4-pyridinyl)-2-pyrimidinamine, dihydrochloride], the half-maximal inhibitory concentration (IC50) stood at 3000 nM.

The same assay, now with this note: concentration causing 50% inhibition of histamine release, by linear regression; active if IC50 ≦ 48 µM; trihydrochloride; read-out: IC50.
For the compound `CN(C)c1cccc(Nc2nccc(-c3ccccn3)n2)c1` [N,N-Dimethyl-N'-[4-(2-pyridinyl)-2-pyriziiidin-yl]-1,3-benzenediamine, trihydrochloride], the IC50 stood at 1000 nM.

A word on the IC50: it is the concentration that inhibits the measured activity by half.
